Measurements: patent US7906620B2, “Tumor associated antigen, peptides thereof, and use of same as anti-tumor vaccines” (Yeda Research and Development Co. Ltd., priority 2002, dated 2011)

Test system: peptide loaded on labeled RMA-S/HHD
Experiment: Immunogenicity of peptides in HHD mice: vaccination with peptide-loaded RMA-S/HHD/B7.1, cytolytic assay on peptide-loaded targets
Type: in vivo
Conditions: for Score: immunogenic score: ratio of specific lysis, specific peptide vs tyrosinase peptide loaded on RMA-S/HHD, average of two experiments, positive above 125%; for antigenic / immunogenic in HHD mice: mouse, in vivo
Method: FIG. 4 is a graph of the results of in vitro cytolytic assays. Seven peptides are immunogenic. Peptides were loaded on RMA-S/HHD/B7.1, washed and irradiated. HHD mice were immunized three times as described in the materials and methods section in Example 1. In vitro cytolytic assays were performed on the relevant peptide as target and on an irrelevant peptide. The score was deduced from the ratio of the specific lysis that were obtained. The positive peptides (above 125%) are marked by arrows. Peptides 1-6, 3-5 and 3-7 are derived from “Human 1-8D gene”.
Vaccination. HHD mice were immunized i.p. 3 times at 7-day intervals with 2×10^6 irradiated (5000 rad) tumor cells, or irradiated peptide-loaded RMA-S/HHD/B7.1 transfectants. Spleens were removed on day 10 after the last immunization, and splenocytes were restimulated in vitro, either with irradiated tumor cells or with one third of the lymphocytes pre-pulsed with 100 μM synthetic peptides in opti-MEM (Life Technologies) for 2 hr at 37° C., 5% CO2. Restimulated lymphocytes were cultured in RPMI-HEPES medium containing 10% FCS, 2 mM glutamine, combined antibiotics, 1 mM sodium pyruvate, 25 mM HEPES, 5×10^−5M PME and 1% NEAA for 5 days. Viable cells (effectors) were separated by Lympholyte-M (Cedarlane, Hornby, Canada) gradient, resuspended and admixed at different ratios with 5,000 ^35S-methionine-labeled target cells. Cytolytic assays were carried out as described previously in Carmon et al., 2000. Extracts of tumor peptides or normal colon peptides were prepared from a pool of 6 post-surgical colon carcinoma specimens as described before Carmon et al., 2000.
The antigenic peptides were tested for their specific immunogenicity in HHD mice. HHD mice were vaccinated with RMA-S/HHD/B7.1 cells loaded with each of the peptides (listed in Table 3), their spleens were removed, and resensitized in vitro with synthetic peptides for four days. On the fifth day, a cytolytic assay was performed on two targets, either the peptide itself loaded on labeled RMA-S/HHD or the tyrosinase peptide as a negative control. The ratio of specific lysis between specific and tyrosinase peptides was defined as “immunogenic score”. This experiment was repeated twice and the average score of each of the antigenic peptides is specified (Table 3 and FIG. 4). The horizontal line in FIG. 4 represents the limit of 95% significance as defined by assuming normal distribution of scores.

Row | Sequence | Score | antigenic / immunogenic in HHD mice
1 | ALGFYPAEI (listed as Homo sapiens) [Peptide 3-3] | 93.6 | –
2 | ALPDETEVV (listed as Homo sapiens) [Peptide 2-1, Human osteonectin 23-31] | 115.0 | –
3 | ALRGHSHFV (listed as Homo sapiens) [Peptide 1-8, Human MHC protein homologous to chicken B complex 58-66] | 106.7 | –
4 | DLQETLVKI (listed as Homo sapiens) [Peptide 3-6, Human chaperonin like protein 316-324] | 84.6 | –
5 | FELAAESDV (listed as Homo sapiens) [Peptide 1-4, Transforming growth factor beta induced gene 380-338] | 83.3 | –
6 | GQQSTVSDV (listed as Homo sapiens) [Peptide 1-5] | 125.0 | –
7 | IPMGKSMLV (listed as Homo sapiens) [Peptide 2-2, Insulin like growth factor II 3-11] | 9.5 | –
8 | IQQYGHQEV (listed as Homo sapiens) [Peptide 1-7] | 94.6 | –
9 | IVDDITYNV (listed as Homo sapiens) [Peptide 1-11] | 126.8 | antigenic and immunogenic
10 | KIEDNNTLV (listed as Homo sapiens) [Peptide 2-3, Human ribosomal protein L23a mRNA 89-97] | 150.0 | antigenic and immunogenic
11 | LLVIIPVLV (listed as Homo sapiens) [Peptide 1-2, Human 1-8D gene from interferon inducible gene 119-127] | 108.3 | –
12 | MLTINGKAI (listed as Homo sapiens) [Peptide 3-1, Transforming growth factor beta induced gene 343-351] | 147.1 | antigenic and immunogenic
13 | SIAEFFSDI (listed as Homo sapiens) [Peptide 3-2, Human TB2 gene 105-113] | 143.2 | antigenic and immunogenic
14 | TILTAVLLV (listed as Homo sapiens) [Peptide 1-10, Human defensin 6 5-13] | 97.5 | –
15 | TLQLSRAPV (listed as Homo sapiens) [Peptide 1-12, Human mRNA for dipeptidase 223-231] | 107.9 | –
16 | VIATNILLV (listed as Homo sapiens) [Peptide 1-9, Human chaperonin-like protein 368-346] | 69.7 | –
17 | VLYDELKKV (listed as Homo sapiens) [Peptide 1-1, Human ADP/ATP translocase 253-261] | 121.7 | –
18 | VQPQSPVAV (listed as Homo sapiens) [Peptide 1-3] | 112.0 | –
19 | WVVYGVFSI (listed as Homo sapiens) [Peptide 3-4, Human TB2 gene 98-106] | 90.9 | –
